Assay results: PMC8752738, “A propolis-derived small molecule ameliorates metabolic syndrome in obese mice by targeting the CREB/CRTC2 transcriptional complex” (Nature Communications, 2022)
Where “and” joins values, the source holds several entries; their conditions need not be identical. Equal values may be shown once.

Experiment: Cholesterol, TG, NEFA and glycerol in serum and liver
Type: in vivo, mouse
Parameters: liver NEFA, Mean 2 (group mean) / Plasma VLDL cholesterol in db/db mice (VLDL-C) / Plasma VLDL cholesterol in db/db mice, group mean / TC in liver_CT2KO (total cholesterol in the liver of CRTC2-KO) / TC in liver_WT (total cholesterol in the liver) / TC in liver_WT, mean / TC in liver_WT, Mean Diff. VEH vs. drug / TC in liver_CRTC2KO, mean / TC in liver_CRTC2KO, Mean Diff. VEH vs. drug: unit not given here
Conditions: for plasma NEFA, Mean 2 (group mean): vs 0mg/kg mean 1.02; for liver glycerol/protein: Figure 5i; for hepatic NEFA / liver NEFA, Mean 2 (group mean): Figure 5h; for liver NEFA, Mean 2 (group mean): vs 0mg/kg mean 165.9; for Plasma total cholesterol, Mean 1 (drug group): N 6; for HF, plasma TG / HF, plasma TG, group mean / HF, plasma TG (Fast, TG): HF mice; for HF, plasma TG, group mean: n=6; for HF, plasma TG (Fast, TG): fasted
Method: Serum total cholesterol (TC), LDL cholesterol (LDL-C), and HDL cholesterol (HDL-C) levels were detected using commercial kits (Beihua, China), and serum VLDL protein was determined by ELISA (Jiancheng, China).
The plasma TG and NEFA levels were determined using corresponding kits from Beihua (China) and WAKO (Japan), respectively. The TG levels of liver and WAT were tested by TG kit (Applygene, China). The NEFA in the liver and WAT were extracted by chloroform–methanol and then subjected to NEFA assay (WAKO).

[1] = APC 10 mg/kg, individual animals
[2] = APC 20 mg/kg, individual animals
[3] = APC-10mg/kg, individual mice, 10 mg/kg
[4] = APC-20mg/kg, individual mice, 20 mg/kg
[5] = HF mice plasma, APC 10 mg/kg, N=5
[6] = HF mice plasma, APC 10 mg/kg, individual animals
[7] = HF mice plasma, APC 20 mg/kg, N=5
[8] = HF mice plasma, APC 20 mg/kg, individual animals
[9] = db/db mice, plasma, individual animals

## CC(C)=CCc1cc(C=CC(=O)O)cc(CC=C(C)C)c1O [APC, 3,5-diprenyl-4-hydroxycinnamic acid]
[1]
  liver TG normolized by protein: 86.3991 µM/mg and 171.894 µM/mg and 414.053 µM/mg and 275.641 µM/mg and 201.326 µM/mg
  HF, plasma TG: 206.957 mg/dL and 266.745 mg/dL and 324.233 mg/dL and 312.736 mg/dL and 213.856 mg/dL and 276.893 mg/dL
  HF, plasma TG (Fast, TG): 2.336 mM and 3.011 mM and 3.66 mM and 3.53 mM and 2.414 mM and 3.1252 mM
APC 10 mg/kg, n=5
  liver TG normolized by protein, group mean: 229.9
APC 10 mg/kg, individual mice, Figure 5g
  plasma NEFA: 1.19 mM (2×) and 1.033 mM and 1.294 mM and 1.373 mM
APC 10mg/kg, n=5, Figure 5g
  plasma NEFA, Mean 2 (group mean): 1.216
[2]
  liver TG normolized by protein: 85.5962 µM/mg and 137.868 µM/mg and 107.422 µM/mg and 121.195 µM/mg and 111.821 µM/mg
  HF, plasma TG: 191.58 mg/dL and 265.587 mg/dL and 200.059 mg/dL and 301.238 mg/dL and 218.455 mg/dL and 257.547 mg/dL
  HF, plasma TG (Fast, TG): 2.1623 mM and 2.9976 mM and 2.258 mM and 3.4 mM and 2.466 mM and 2.907 mM
APC 20 mg/kg, individual mice, Figure 5g
  plasma NEFA: 1.765 mM and 1.686 mM and 1.451 mM and 1.242 mM and 1.507 mM
APC 20mg/kg, n=5, Figure 5g
  plasma NEFA, Mean 2 (group mean): 1.53
[3]
  liver glycerol/protein: 49.7505 nM/mg and 67.3705 nM/mg and 57.1365 nM/mg and 57.0635 nM/mg and 49.612 nM/mg
  hepatic NEFA: 39.07 mM/mg protein and 106.88 mM/mg protein and 150.80 mM/mg protein and 112.30 mM/mg protein and 101.67 mM/mg protein
APC-10mg/kg, n=5
  liver NEFA, Mean 2 (group mean): 102.1
[4]
  liver glycerol/protein: 43.0466 nM/mg and 45.5622 nM/mg and 43.2605 nM/mg and 44.1634 nM/mg and 41.762 nM/mg
  hepatic NEFA: 39.34 mM/mg protein and 26.14 mM/mg protein and 65.42 mM/mg protein and 29.72 mM/mg protein and 45.95 mM/mg protein
APC-20mg/kg, n=5
  liver NEFA, Mean 2 (group mean): 41.31
DIO mice
  NEFA and glycerol levels in the liver: reduced
  NEFA levels in the plasma: significantly enhanced
DIO mice, i.p. daily 5 weeks
  TG in serum and liver; TC, LDL-C, HDL-C, VLDL-C in serum: reduced
Figure 6h, CRTC2KO mice
  Plasma total cholesterol, Mean Diff. vs. VEH: 5.091 mg/dL
  Plasma total cholesterol, Mean 1 (drug group): 223.9 mg/dL
Figure 6h, CRTC2KO mice, individual mice
  TC in plasma_CRTC2KO (plasma total cholesterol): 238.201 mg/dL and 210.746 mg/dL and 206.493 mg/dL and 224.280 mg/dL and 219.253 mg/dL and 244.388 mg/dL
Figure 6h, WT mice
  Plasma total cholesterol, Mean Diff. vs. VEH: -70.45 mg/dL
  Plasma total cholesterol, Mean 1 (drug group): 208.1 mg/dL
Figure 6h, WT mice, individual mice
  TC in plasma_WT (plasma total cholesterol): 239.748 mg/dL and 207.149 mg/dL and 201.100 mg/dL and 213.669 mg/dL and 202.239 mg/dL and 184.451 mg/dL
[5]
  Plasma HDLC, group mean: 108.7
  Plasma LDLC, group mean: 35.65
  Plasma TC, group mean: 159.1
[6]
  Plasma cholesterol fraction: HDL-C: 121.556 mg/dL and 100.915 mg/dL and 96.3277 mg/dL and 114.676 mg/dL and 110.089 mg/dL
  Plasma cholesterol fraction: TC: 183.52 mg/dL and 143.341 mg/dL and 133.376 mg/dL and 156.357 mg/dL and 178.886 mg/dL
  Plasma cholesterol fraction: lDL-C: 34.819 mg/dL and 32.859 mg/dL and 26.6884 mg/dL and 35.653 mg/dL and 48.218 mg/dL
  plasma VLDL-C in HF mice: 7.592 mM and 8.572 mM and 12.094 mM and 7.185 mM and 10.797 mM
[7]
  Plasma LDLC, group mean: 35.83
  Plasma TC, group mean: 149.8
[8]
  Plasma cholesterol fraction: HDL-C: 115.823 mg/dl and 123.85 mg/dl and 106.649 mg/dl (2×) and 111.236 mg/dl
  Plasma cholesterol fraction: TC: 171.677 mg/dL and 165.819 mg/dL and 163.116 mg/dL and 116.704 mg/dL and 131.574 mg/dL
  Plasma cholesterol fraction: lDL-C: 30.997 mg/dL and 43.001 mg/dL and 39.18 mg/dL and 41.345 mg/dL and 24.6089 mg/dL
  plasma VLDL-C in HF mice: 7.201 mM and 6.888 mM and 6.935 mM and 9.593 mM and 6.573 mM
APC 10 mg/kg
  HF, plasma TG, group mean: 266.9
APC 20 mg/kg
  HF, plasma TG, group mean: 239.1
WT lean mice ip APC, individual mice
  plasma NEFA: 0.3625 mM and 0.9375 mM (2×) and 0.4375 mM (2×) and 0.3875 mM and 0.3375 mM
[9]
  Plasma HDL cholesterol (HDLC) in db/db mice: 102.090 mg/dL and 118.865 mg/dL and 74.315 mg/dL and 130.914 mg/dL and 101.419 mg/dL
  Plasma LDL cholesterol (LDLC) in db/db mice: 136.268 mg/dL and 110.602 mg/dL and 104.635 mg/dL and 153.302 mg/dL and 128.968 mg/dL
  Plasma total cholesterol (TC) in db/db mice: 321.58 mg/dL and 345.006 mg/dL and 255.56 mg/dL and 362.043 mg/dL and 310.931 mg/dL
  plasma TG in db/db mice: 326.962 mg/dL and 300.088 mg/dL and 273.215 mg/dL and 309.046 mg/dL and 418.497 mg/dL
db/db mice, plasma, mean, N 5
  Plasma total cholesterol (TLC) in db/db mice, group mean: 319 mg/dL
db/db mice, plasma, mean, sample size 5
  Plasma VLDL cholesterol in db/db mice, group mean: 14.3
liver, CRTC2-KO mice, VEH minus drug
  TC in liver_CRTC2KO, Mean Diff. VEH vs. drug: 4.338
liver, CRTC2-KO mice, drug minus VEH
  TG in liver_CT2KO, Mean Diff. vs. VEH: 1.019 mg/g protein
